From patent publication US20240407363A1 (priority 2021, published 2024)
Entries after “also recorded” stand apart in the source; their conditions may differ.

What was measured:
[1] = system: X. perforans strain GEV-485; experiment: In vitro antibacterial activity at different time points (viable colony counts); type: cell-based
Experimental: X. perforans strain GEV-485, a copper-resistant strain, was used in this study to evaluate the antibacterial activity of Hx. Working cultures of GEV-485 were retrieved from −80° C. storage vials containing bacterial suspensions in 30% glycerol (v/v). Bacterial cells were taken from the storage, streaked on nutrient agar (NA; Difco™ Sparks, MD) plates and incubated for 48 h at 28° C. and single colonies were picked and streaked on NA plates to ensure bacterial purity for further cultures. NA amended with copper (II) sulfate pentahydrate (CuSO4·5H2O) (Fisher Scientific-Hampton, NH) at 20 ppm, was used as copper tolerance selective agent. To prepare the bacterial inoculum, a single bacterial colony was streaked on NA and incubated for 24 h at 28° C. From those plates, loops of bacterial cells were collected and resuspended in SDW amended with 0.01 M MgSO4. The bacterial concentration was adjusted to ˜5.0×10^8 colony-forming units (CFU)/mL based on an optical density (OD) of 0.3 at 600 nm. The in vitro studies were conducted to determine the minimum inhibitory concentration (MIC), minimum bactericidal concentration (MBC), and the antibacterial activity at different time points.
For the antibacterial activity study of Hx at different time points, the bacterial suspension was prepared as described above. […] After incubation, total viable colonies for each tube were counted. […]

X. perforans GEV-485 = experiment: Greenhouse in planta experiments, hexanoic acid soil drench, tomato bacterial spot ('Bonnie Best'); type: in vivo
Experimental: Hexanoic acid (Hx) (>99%, Sigma Aldrich) was tested for its effect on the management of bacterial leaf spot of tomato. Stock solutions of Hx (1.0×10^4 mg/L) were prepared with sterile distilled water (SDW) and stored at 4° C. for further dilutions. Copper treatment suspensions were prepared using Kocide® 3000 (DuPont, Wilmington DE) that contains 30% metallic Cu in the form of copper hydroxide [Cu(OH)2]. For greenhouse experiments, Kocide® 3000 at the rate of 2.1 g/L and Penncozeb 75DF (United Phosphorus Inc., King of Prussia, PA) at the rate of 1.2 g/L in SDW were prepared.
The plants were then moved to a growth chamber with temperature at 28° C., 12 h photoperiod and 80% relative humidity. Fifty mL of Hx at the tested rates were applied to 3-4 weeks old plants by soil drench, 4 and 2 days prior to bacterial inoculation to prime the plants and induce basal plant defense. Kocide® 3000 and a mixture of Kocide® 3000+Penncozeb® were sprayed on the tomato plants until runoff and allowed to air dry for 4 h before bacterial inoculation. Three plants were sprayed with SDW only, as a negative control. […] Disease severity and phytotoxicity were evaluated every other day using the Horsfall-Barratt scale (Horsfall and Barratt, 1945), starting from 3 days up to 20 days post inoculation. […]

Xanthomonas perforans = experiment: Field trials on hexanoic acid, bacterial spot of tomato (cv. Red bounty); type: in vivo; details: for AUDPC / BS last rating of bacterial spot severity / YIELD: cv. Red bounty, ManKocide 2.1 mg/ml foliar spray, hexanoic acid 0.5 mg/ml drench (50 ml/plant)
Experimental: Table 3 notes: Data from 2 repeated field experiments: BS1/BS2=bacterial disease severity in Exp. 1/Exp. 2; AUDPC1/AUDPC2=area under the disease progress curve in Exp. 1/Exp. 2; YIELD 1/YIELD 2=fruit yield (Kg/plant) in Exp/1/Exp.2; KOCIDER=Kocide® 3000 (Cu bactericide) at 1.75 lb/acre (=2.1 mg/mL) by sprays; MANKO=Mankocide® (Cu+mancozeb) at 1.75 lb/acre by foliar spray; HEXANO=hexanoic acid at 0.5 mg/mL (=500 mg/L) by root drench weekly for a total of 8 weeks.
It is noted regarding the table above that: (1) data in this table were from 2 repeated field experiments, whereas those in FIG. 9 were from a greenhouse preliminary test; and (2) in the field experiments, Hx at 500 mg/L was weekly applied as soil drench for a total of 8 weeks. In the greenhouse test (FIG. 9), Hx at 512 mg/L was applied only one time as soil drench at 1, 3, or 7 days prior to the bacterial inoculation, respectively.
Tomato seedlings were transplanted in fall for the first trial (trial 1) and spring for the second trial (trial 2). Treatments were started about two weeks after transplanting following weekly applications for a total of eight weeks. Tomato plants were inoculated with the pathogen Xanthomonas perforans (1-5×10^6 cfu/ml) the following day in the afternoon after the third treatment. Disease severity was rated weekly when bacterial spot symptoms were observed, and area under the disease progress curve (AUDPC) was calculated. Tomato fruit were harvested two to three times for each trial and graded according to the USDA standard. Total fruit yield in each treatment and the untreated control (CK) was subjected to statistical analysis using SAS (version 9.2, SAS Institute Inc., Cary, NC, USA). Disease severity of last rating and AUDPC from each trial were analyzed and presented.
Hexanoic acid at 0.5 mg/ml was drenched (50 ml/plant) to the base of each plant. This chemical was evaluated in two independent trials. Tomato cultivar was ‘Red bounty’.

[2] = 0.5 mg/ml applied as root drench (50 ml/plant)
[3] = Experiment 1, Kocide 3000 1.75 lb/acre (=2.1 mg/mL) sprays, Mankocide 1.75 lb/acre foliar spray, hexanoic acid 0.5 mg/mL root drench weekly for 8 weeks
[4] = Experiment 2, Kocide 3000 1.75 lb/acre (=2.1 mg/mL) sprays, Mankocide 1.75 lb/acre foliar spray, hexanoic acid 0.5 mg/mL root drench weekly for 8 weeks

CCCCCC(=O)O [Hexanoic acid, hexanoic acid]
colony growth after treatment ([1]; at 256 mg/L or higher concentrations, after 4 hours of treatment): no colonies grew | bactericidal effect over time ([1]; higher concentrations of hexanoic acid): bactericidal effects within an hour | bacterial spot disease (preliminary AUDPC, FIG. 9) compared to the control (UTC) (X. perforans GEV-485; 512 mg/L applied only once as soil drench 1, 3, and 7 days prior to the bacterial inoculation): did not appear to significantly reduce the bacterial spot disease | disease severity (AUDPC, FIG. 10) compared to the control (UTC) (X. perforans GEV-485; different treatment concentrations, application two days prior to the bacterial inoculation, two-week rating period): significantly (P<0.05) lower disease severity; also recorded: statistically significant (p<0.05) lower disease severity | effect on disease reduction compared to ManKocide at the label rate of 2.1 mg/ml (Xanthomonas perforans; [2]): even better than ManKocide® | marketable tomato fruit yield compared to controls (Xanthomonas perforans; [2]): greater than the untreated control (CK) and ManKocide® in one of the two independent trials | bacterial spot disease severity and AUDPC compared to the untreated control (CK) (Xanthomonas perforans; 0.5 mg/ml applied as root drench (50 ml/plant), Homestead, FL 2020-2021): significantly (P<0.05) reduced bacterial spot disease severity at the last rating and the overall disease progress | AUDPC1 area under the disease progress curve (Xanthomonas perforans; [3]): 95.93 c | BS1 bacterial disease severity (Xanthomonas perforans; [3]): 10.8 d % | YIELD1 fruit yield (Xanthomonas perforans; [3]): 8.83 a Kg/plant | AUDPC2 area under the disease progress curve (Xanthomonas perforans; [4]): 390.1 c | BS2 bacterial disease severity (Xanthomonas perforans; [4]): 41.3 c % | YIELD2 fruit yield (Xanthomonas perforans; [4]): 2.76 a Kg/plant | AUDPC (Xanthomonas perforans; Trial 1): 95.9 c | BS last rating of bacterial spot severity (Xanthomonas perforans; Trial 1): 10.8 c % | YIELD (Xanthomonas perforans; Trial 1): 8.83 a kg/plant | AUDPC (Xanthomonas perforans; Trial 2): 390.1 c | BS last rating of bacterial spot severity (Xanthomonas perforans; Trial 2): 41.3 b % | YIELD (Xanthomonas perforans; Trial 2): 2.76 a kg/plant
